In US20220324835A1 (Nurix Therapeutics, Inc., priority 2018, published 2022) one finds fold induction and IC50 data, which are given here for 15 compounds.

Like-named read-outs stand apart in the source and are kept apart here. A value given as a limit tells only on which side of the number the result lay.

Experiment [1] concerns T-cell. The experiment is described as follows: IL-2 secretion from T-cells co-stimulated with anti-CD3 and anti-CD28 antibody (Biological Example 2). It is filed as cell-based, human. Conditions: Homo sapiens, T-cell, fold change over baseline, primary human total T-cells, read-out: IL-2 secretion Anti-CD3/Anti-CD28 stimulation; for fold induction at 0.3 µM: 0.3 μM Cbl-b inhibitor; for fold induction at 1 µM: 1 μM Cbl-b inhibitor; for fold induction at 4 µM: 4 μM Cbl-b inhibitor. In outline: (§1)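 No assay protocol given; T-cells stimulated with anti-CD3 alone or anti-CD3 plus anti-CD28, with or without Cbl-b inhibitor. Activation read as IL-2 secretion or CD25 surface staining, expressed as fold over baseline from uninhibited cells […].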

Experiment [2] has as its system T-cell. The experiment is described as follows: CD25 cell surface staining on T-cells co-stimulated with anti-CD3 and anti-CD28 antibody (Biological Example 2). It is filed as cell-based, human. Conditions: Homo sapiens, T-cell, fold change over baseline, primary human total T-cells, read-out: CD25 staining Anti-CD3/Anti-CD28 stimulation; for fold induction at 0.3 µM: 0.3 μM Cbl-b inhibitor; for fold induction at 1 µM: 1 μM Cbl-b inhibitor; for fold induction at 4 µM: 4 μM Cbl-b inhibitor. A digest of the protocol:
as §1

Another experiment addresses Cbl-b (Homo sapiens, UniProt Q13191). Nature of the experiment: Cbl-b activity assay (Cbl-b inhibition assay), TR-FRET of Cbl-b interaction with UbcH5B-Ub. It is filed as biochemical. A digest of the protocol: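 TR-FRET readout of Cbl-b binding to Bodipy-fluorescein N-terminally labeled Ub conjugated to UbcH5B C85K, measured with compound present. After compound incubation, 60 nM Src kinase with 1 mM ATP and 5 mM MgCl2 (final) was added for 1.5 h, then a further 1 h incubation; asterisked values used 50 mM NaCl buffer and 30 nM Src.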
In general terms: TR-FRET usually uses a lanthanide donor and a delayed reading to cut background.

The mark [3] stands for this setting: assay buffer with 100 mM NaCl, 60 nM Src kinase, read-out: Cbl-b activity IC50.
Setting [4] is: * assay buffer containing 50 mM NaCl instead of 100 mM NaCl and 30 nM Src kinase instead of 60 nM, read-out: Cbl-b activity IC50 (μM)*.

Chain of Cbl-b (Q13191 36-427): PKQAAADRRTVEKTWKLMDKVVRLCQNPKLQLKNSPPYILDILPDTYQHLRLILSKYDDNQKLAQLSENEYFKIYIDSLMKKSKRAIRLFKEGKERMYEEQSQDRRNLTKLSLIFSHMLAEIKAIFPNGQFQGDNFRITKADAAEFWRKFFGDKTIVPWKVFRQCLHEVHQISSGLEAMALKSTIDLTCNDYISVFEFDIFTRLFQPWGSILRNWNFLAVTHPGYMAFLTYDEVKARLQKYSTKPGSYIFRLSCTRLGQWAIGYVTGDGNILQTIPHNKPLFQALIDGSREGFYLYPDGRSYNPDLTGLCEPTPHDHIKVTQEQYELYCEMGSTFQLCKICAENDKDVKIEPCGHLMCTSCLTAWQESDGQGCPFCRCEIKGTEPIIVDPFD

Turning to `Cn1cnnc1C(F)(F)C(C)(F)c1cccc(N2Cc3c(cccc3C(F)(F)F)C2=O)c1` (racemic) [Compound 296, 2-(3-(1,1,2-trifluoro-1-(4-methyl-4H-1,2,4-triazol-3-yl)propan-2-yl)phenyl)-4-(trifluoromethyl)isoindolin-1-one], in the experiment on T-cell [1], the fold induction at 0.3 µM was less than 1, the fold induction at 1 µM is less than 1 and the fold induction at 4 µM was 1.01 to 2.5. Also, in the experiment on T-cell [2], the fold induction at 0.3 µM was in the range of 1.01 to 1.3, the fold induction at 1 µM is 1.01 to 1.3 and the fold induction at 4 µM was 1.01 to 1.3. Also, on Cbl-b (setting [3]), the IC50 was 0.301 to 1 µM.
Regarding `Cn1cnnc1CC(C)(F)c1cccc(N2Cc3c(cccc3C(F)(F)F)C2=O)c1` (racemic) [Compound 298, 2-(3-(2-fluoro-1-(4-methyl-4H-1,2,4-triazol-3-yl)propan-2-yl)phenyl)-4-(trifluoromethyl)isoindolin-1-one], in the experiment on T-cell [1], the fold induction at 0.3 µM fell in the range of 5 to 7.5, the fold induction at 1 µM was 5 to 7.5 and the fold induction at 4 µM is greater than 7.5. In addition, in the experiment with T-cell [2], the fold induction at 0.3 µM is less than 1, the fold induction at 1 µM lay in the range of 1.01 to 1.3 and the fold induction at 4 µM was 1.01 to 1.3. The IC50 at Cbl-b (setting [3]) lay within 0.1 to 0.3 µM.
With `C[C@H](Cc1nncn1C)c1cc(N[C@@H]2CCOC2)nc(N2Cc3c(cccc3C(F)(F)F)C2=O)c1` (stereo in doubt) [Compound 362, 2-(4-((R)-1-(4-methyl-4H-1,2,4-triazol-3-yl)propan-2-yl)-6-((S)-THF-3-ylamino)pyridin-2-yl)-4-(trifluoromethyl)isoindolin-1-one], in the experiment with T-cell [1], the fold induction at 0.3 µM is 1.01 to 2.5, the fold induction at 1 µM was in the range of 1.01 to 2.5 and the fold induction at 4 µM lay within 1.01 to 2.5. Also, in the experiment on T-cell [2], the fold induction at 0.3 µM was less than 1, the fold induction at 1 µM lay in the range of 1.01 to 1.3 and the fold induction at 4 µM was 1.01 to 1.3. Besides, the IC50 on Cbl-b (setting [3]) was in the range of 0.1 to 0.3 µM.
With `Cc1cc(C(=O)Nc2cccc([C@H](C)Sc3nncn3C)c2)nc2ccccc12` [Compound 30, (S)-4-Methyl-N-(3-(1-((4-methyl-4H-1,2,4-triazol-3-yl)thio)ethyl)phenyl)quinoline-2-carboxamide], in the experiment on T-cell [1], the fold induction at 0.3 µM was in the range of 1.01 to 2.5, the fold induction at 1 µM was in the range of 1.01 to 2.5 and the fold induction at 4 µM was in the range of 2.51 to 5. Moreover, in the experiment with T-cell [2], the fold induction at 0.3 µM fell in the range of 1.01 to 1.3, the fold induction at 1 µM was in the range of 1.01 to 1.3 and the fold induction at 4 µM fell in the range of 1.01 to 1.3. In addition, on Cbl-b (setting [4]), the IC50 was in the range of 0.301 to 1 µM. The IC50 on Cbl-b (setting [3]) lay in the range of 0.301 to 1 µM.
Take `C[C@H](Sc1nncn1C)c1cccc(NC(=O)c2cc(C(F)(F)F)ccn2)c1` [Compound 32, (S)-N-(3-(1-((4-Methyl-4H-1,2,4-triazol-3-yl)thio)ethyl)phenyl)-4-(trifluoromethyl)picolinamide]: in the experiment on T-cell [1], the fold induction at 0.3 µM was less than 1, the fold induction at 1 µM was 1.01 to 2.5 and the fold induction at 4 µM is 1.01 to 2.5. In the experiment on T-cell [2], the fold induction at 0.3 µM was in the range of 1.01 to 1.3, the fold induction at 1 µM lay in the range of 1.01 to 1.3 and the fold induction at 4 µM fell in the range of 1.01 to 1.3. Also, the IC50 on Cbl-b (setting [4]) was 1 to 3 µM. The IC50 on Cbl-b (setting [3]) fell in the range of 3 to 10 µM.
Take `CC(C)c1cccc(C(=O)Nc2cccc([C@H](C)Sc3nncn3C)c2)n1` [Compound 33, (S)-6-Isopropyl-N-(3-(1-((4-methyl-4H-1,2,4-triazol-3-yl)thio)ethyl)phenyl)picolinamide]: in the experiment with T-cell [1], the fold induction at 0.3 µM was in the range of 2.51 to 5, the fold induction at 1 µM was in the range of 2.51 to 5 and the fold induction at 4 µM was greater than 7.5. Besides, in the experiment with T-cell [2], the fold induction at 0.3 µM is 1.01 to 1.3, the fold induction at 1 µM lay within 1.01 to 1.3 and the fold induction at 4 µM is 1.01 to 1.3. On Cbl-b (setting [4]), the IC50 is 0.301 to 1 µM. For the same compound, on Cbl-b (setting [3]), the IC50 was 0.1 to 0.3 µM.
`Cc1ccc(C(=O)Nc2cccc([C@H](C)Sc3nncn3C)c2)nc1C` [Compound 35, (S)-5,6-Dimethyl-N-(3-(1-((4-methyl-4H-1,2,4-triazol-3-yl)thio)ethyl)phenyl)picolinamide]: the results for the fold induction at 0.3 µM with T-cell [1] and in the experiment on T-cell [2] were 1.01 to 2.5 and less than 1, respectively. The values for the fold induction at 1 µM in the experiment on T-cell [1] and in the experiment with T-cell [2] were 2.51 to 5 and 1.01 to 1.3, respectively. Besides, the fold induction at 4 µM lay in the range of 2.51 to 5 in the experiment on T-cell [1] and 1.31 to 1.5 with T-cell [2]. In addition, the IC50 on Cbl-b (setting [4]) and at Cbl-b (setting [3]) was 0.301 to 1 µM throughout.
`Cc1cccc2nc(C(=O)Nc3cccc([C@H](C)Sc4nncn4C)c3)ccc12` [Compound 48, 5-Methyl-N-[3-[(1S)-1-[(4-methyl-4H-1,2,4-triazol-3-yl)sulfanyl]ethyl]phenyl]quinoline-2-carboxamide]: in the experiment on T-cell [1], the fold induction at 0.3 µM lay within 2.51 to 5, the fold induction at 1 µM fell in the range of 5 to 7.5 and the fold induction at 4 µM was greater than 7.5. Moreover, in the experiment with T-cell [2], the fold induction at 0.3 µM was 1.01 to 1.3, the fold induction at 1 µM is 1.01 to 1.3 and the fold induction at 4 µM is 1.01 to 1.3. The half-inhibitory concentration (IC50) at Cbl-b (setting [3]) was 0.301 to 1 µM.
`C[C@H](Sc1nncn1C)c1cccc(NC(=O)c2ccc(Cl)c(C(F)(F)F)n2)c1` [Compound 51, (S)-5-chloro-N-(3-(1-((4-methyl-4H-1,2,4-triazol-3-yl)thio)ethyl)phenyl)-6-(trifluoromethyl)picolinamide]: in the experiment on T-cell [1], the fold induction at 0.3 µM was less than 1, the fold induction at 1 µM is less than 1 and the fold induction at 4 µM lay in the range of 1.01 to 2.5. For the same compound, in the experiment with T-cell [2], the fold induction at 0.3 µM fell in the range of 1.01 to 1.3, the fold induction at 1 µM lay in the range of 1.01 to 1.3 and the fold induction at 4 µM was 1.01 to 1.3. Besides, the IC50 on Cbl-b (setting [3]) lay within 0.1 to 0.3 µM.
For `C[C@H](Sc1nncn1C)c1cccc(NC(=O)c2cc(C(C)(C)O)c(Cl)cn2)c1` [Compound 55, (S)-5-chloro-4-(2-hydroxypropan-2-yl)-N-(3-(1-((4-methyl-4H-1,2,4-triazol-3-yl)thio)ethyl)phenyl)picolinamide], in the experiment with T-cell [1], the fold induction at 0.3 µM lay within 1.01 to 2.5, the fold induction at 1 µM was in the range of 1.01 to 2.5 and the fold induction at 4 µM was 1.01 to 2.5. Moreover, in the experiment on T-cell [2], the fold induction at 0.3 µM lay in the range of 1.01 to 1.3, the fold induction at 1 µM was 1.01 to 1.3 and the fold induction at 4 µM was in the range of 1.01 to 1.3. The IC50 at Cbl-b (setting [3]) was 0.301 to 1 µM.
As for `Cc1cc(C)nc(C(=O)Nc2cccc([C@H](C)Sc3nncn3C)c2)c1` [Compound 56, (S)-4,6-dimethyl-N-(3-(1-((4-methyl-4H-1,2,4-triazol-3-yl)thio)ethyl)phenyl)picolinamide], in the experiment on T-cell [1], the fold induction at 0.3 µM lay within 2.51 to 5, the fold induction at 1 µM lay within 5 to 7.5 and the fold induction at 4 µM is greater than 7.5. Also, in the experiment with T-cell [2], the fold induction at 0.3 µM was 1.01 to 1.3, the fold induction at 1 µM fell in the range of 1.01 to 1.3 and the fold induction at 4 µM was in the range of 1.01 to 1.3. Besides, the half-maximal inhibitory concentration (IC50) on Cbl-b (setting [3]) fell in the range of 0.301 to 1 µM.
Turning to `Cc1ccc(C(=O)Nc2cccc([C@H](C)Sc3nncn3C)c2)nc1C(F)(F)F` [Compound 61, (S)-5-methyl-N-(3-(1-((4-methyl-4H-1,2,4-triazol-3-yl)thio)ethyl)phenyl)-6-(trifluoromethyl)picolinamide], in the experiment with T-cell [1], the fold induction at 0.3 µM was less than 1, the fold induction at 1 µM is less than 1 and the fold induction at 4 µM was in the range of 1.01 to 2.5. Further, in the experiment on T-cell [2], the fold induction at 0.3 µM was less than 1, the fold induction at 1 µM lay in the range of 1.01 to 1.3 and the fold induction at 4 µM lay within 1.01 to 1.3. In addition, the IC50 on Cbl-b (setting [3]) is 0.1 to 0.3 µM.
Take `COc1nc(C(=O)Nc2cccc([C@H](C)Sc3nncn3C)c2)cc2ccccc12` [Compound 62, (S)-1-methoxy-N-(3-(1-((4-methyl-4H-1,2,4-triazol-3-yl)thio)ethyl)phenyl)isoquinoline-3-carboxamide]: in the experiment on T-cell [1], the fold induction at 0.3 µM was 2.51 to 5, the fold induction at 1 µM was 5 to 7.5 and the fold induction at 4 µM was greater than 7.5. Moreover, in the experiment on T-cell [2], the fold induction at 0.3 µM was less than 1, the fold induction at 1 µM was 1.01 to 1.3 and the fold induction at 4 µM is 1.01 to 1.3. Besides, the IC50 on Cbl-b (setting [3]) fell in the range of 0.1 to 0.3 µM.
With `C[C@H](Sc1nncn1C)c1cccc(NC(=O)c2cc(C(F)(F)F)cc(C(F)(F)F)n2)c1` [Compound 64, (S)-N-(3-(1-((4-methyl-4H-1,2,4-triazol-3-yl)thio)ethyl)phenyl)-4,6-bis(trifluoromethyl)picolinamide], in the experiment on T-cell [1], the fold induction at 0.3 µM was less than 1, the fold induction at 1 µM is less than 1 and the fold induction at 4 µM was in the range of 1.01 to 2.5. In the experiment on T-cell [2], the fold induction at 0.3 µM is less than 1, the fold induction at 1 µM is less than 1 and the fold induction at 4 µM lay in the range of 1.01 to 1.3. Also, the IC50 at Cbl-b (setting [3]) was 0.301 to 1 µM.
On to `C[C@H](Sc1nncn1C)c1cccc(NC(=O)c2cc(Cl)cc(C(F)(F)F)n2)c1` [Compound 68, (S)-4-chloro-N-(3-(1-((4-methyl-4H-1,2,4-triazol-3-yl)thio)ethyl)phenyl)-6-(trifluoromethyl)picolinamide], for which, in the experiment on T-cell [1], the fold induction at 0.3 µM lay within 1.01 to 2.5, the fold induction at 1 µM lay within 1.01 to 2.5 and the fold induction at 4 µM lay within 1.01 to 2.5. For the same compound, in the experiment with T-cell [2], the fold induction at 0.3 µM lay within 1.01 to 1.3, the fold induction at 1 µM was 1.01 to 1.3 and the fold induction at 4 µM was 1.01 to 1.3. The IC50 at Cbl-b (setting [3]) fell in the range of 0.1 to 0.3 µM.

The IC50 is the point on the concentration scale where inhibition reaches its midpoint.
